Laboratory results taken from article PMC6917776, “Discovery of a chemical probe for PRDM9” (Nature Communications, 2019).
Values joined by “and” are separate entries in the source; they are usually repeats but may differ in a detail not shown here. Equal values may be shown once. Read-outs that look alike come from different tables or passages of the source.

Assays:
PRDM7 = biological target: T1, PRDM7 (Homo sapiens, UniProt Q9NQW5); assay: PRDM7 methyltransferase activity assay (3H-SAM scintillation proximity assay); format: biochemical
T1 sequence (Q9NQW5 1-492): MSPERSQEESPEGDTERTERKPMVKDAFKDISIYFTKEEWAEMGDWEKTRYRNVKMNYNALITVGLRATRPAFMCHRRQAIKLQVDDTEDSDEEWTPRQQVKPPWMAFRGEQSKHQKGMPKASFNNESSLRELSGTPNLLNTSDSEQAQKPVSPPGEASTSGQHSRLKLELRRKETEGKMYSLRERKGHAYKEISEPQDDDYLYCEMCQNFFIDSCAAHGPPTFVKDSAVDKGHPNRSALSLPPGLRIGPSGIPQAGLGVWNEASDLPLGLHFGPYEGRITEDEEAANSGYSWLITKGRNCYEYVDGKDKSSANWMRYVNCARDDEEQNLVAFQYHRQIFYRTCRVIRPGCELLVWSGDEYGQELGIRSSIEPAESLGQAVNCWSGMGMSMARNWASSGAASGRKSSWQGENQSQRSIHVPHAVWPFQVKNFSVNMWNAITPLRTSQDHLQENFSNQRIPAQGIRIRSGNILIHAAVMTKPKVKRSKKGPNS
Method: Methyltransferase activity assays for PRDM9 (amino acids: 195–415) were performed by monitoring the incorporation of tritium-labeled methyl group from ^3H-SAM to H3 (1–25) peptide using scintillation proximity assay (SPA). The enzymatic reactions were performed at 23 °C with 30 min incubation in 20 mM Tris-HCl (pH 7.5), 5 mM DTT, 0.01% Triton X-100 and 1% DMSO containing 71 μM of SAM (5 μM of ^3H-SAM), 4 μM of biotinylated H3 (1–25) peptide and 5 nM of PRDM9. For PRDM7, reactions were performed at 23 °C with 90 min incubation in 20 mM BTP pH 9.0, 5 mM DTT, 0.01% Triton X-100 and 1% DMSO containing 900 μM of SAM (5 μM of ^3H-SAM), 4 μM of biotinylated H3 (1–25) peptide and 100 nM of enzyme. Compounds were titrated from 3 nM to 50 μM and from 200 nM to 200 μM for PRDM9 and PRDM7, respectively. To stop the reactions, 10 μL of 7.5 M guanidine hydrochloride was added to 10 μL of reaction mixture, followed by 60 μL of buffer (20 mM Tris, pH 8.0), mixed, and transferred to a 384-well streptavidin coated Flash-plate. After mixing, the mixtures in Flash-plate were incubated for 2 h, and the CPM counts were measured using TopCount plate reader. All enzymatic reactions were performed in triplicate, and IC50 values were determined by fitting the data to Four Parameter Logistic equation using the GraphPad Prism software.

[1] = tested on: NanoLuc-tagged PRDM9 (residues 135–285); assay: NanoLuciferase thermal shift assay (NALTSA) in HEK293T cells; format: cell-based, human; details: for Normalized_Signal: Fig. 5a, independent replicates
Method: Cells treated with 0.1% DMSO alone were used as a control.
Shown is the mean ± SEM of three biological replicates. Boxes indicate the mean values. P-values calculated using an unpaired Welch’s two-tailed t-test, *p-value = 0.017. Source data are provided as a Source Data file.
NALTSA assays were performed as previously described. Briefly, HEK293T cells were plated in 6-well plates at a density of 1.5 × 10^5 cells/mL. The following day, cells were transfected with 2 µg of C-terminally NanoLuc®-tagged PRDM9 (residues 135–285) with X-tremeGene HP DNA Transfection Reagent (Roche). Cells were incubated for 24 h, trypsinized and resuspended at 1.5 × 10^5 cells/mL in 1x PBS supplemented with protease inhibitors. Cell suspensions were incubated at 37 °C with 10 μM compound or 0.1% DMSO alone for 1 h. Sixty microliters of cells was dispensed per well of a 96-well PCR plate followed by heating across a temperature gradient for 3 min on a Mastercycler® thermal cycler (Eppendorf). After heating, samples were transferred to a 96-well white plastic plate (Corning) and Glo® Substrate (Promega) was added to each well at 1:1000 final dilution. NanoLuciferase signal was read at 450 nm (filter: 450 nm/BP 80 nm) on a CLARIOstar microplate reader (Mandel).

HEK293T cells = assay: Cell growth, IncuCyte ZOOM cell number; format: cell-based; details: for Cell# - toxocity data, % Control: HEK293T-1day, Figure 6c, technical replicates

Question: `COc1cc(OC)cc(-c2noc(N3CCN(C)C4(CCN(c5ccccc5)CC4)C3)n2)c1` [MRK-740-NC] was tested. Which “PRDM7 inhibition (in words)” value (PRDM7) did it give?
Answer: Its value is “no significant PRDM7 inhibition”.

Question: What about the “PRDM7-Activity %, single experiments” value (PRDM7; 0.195312 µM compound, 0.195312 µM) of the same molecule?
Answer: Its value is 100.2% and 97.4%.

Question: What about the activity at 0.195312 µM (PRDM7; 0.195312 µM compound, read-out: PRDM7-Activity %, Average (n=3)) of the same molecule?
Answer: Its activity at 0.195312 µM is 99.4%.

Question: And the activity at 0.195312 µM (PRDM7; 0.195312 µM compound, read-out: PRDM7-Activity %, single experiments)?
Answer: The activity at 0.195312 µM was 101%.

Question: What about the “PRDM7-Activity %, single experiments” value (PRDM7; 0.390625 µM compound, 0.390625 µM) of the same molecule?
Answer: Its value is 100.3% and 102.2%.

Question: What about the activity at 0.390625 µM (PRDM7; 0.390625 µM compound, read-out: PRDM7-Activity %, Average (n=3)) of the same molecule?
Answer: Its activity at 0.390625 µM is 102%.

Question: What about the activity at 0.390625 µM (PRDM7; 0.390625 µM compound, read-out: PRDM7-Activity %, single experiments) of the same molecule?
Answer: The activity at 0.390625 µM was 104%.

Question: What about the “PRDM7-Activity %, single experiments” value (PRDM7; 0.78125 µM compound, 0.78125 µM) of the same molecule?
Answer: Its value is 94.78% and 94.12%.

Question: What about the activity at 0.78125 µM (PRDM7; 0.78125 µM compound, read-out: PRDM7-Activity %, Average (n=3)) of the same molecule?
Answer: Its activity at 0.78125 µM is 92.2%.

Question: And the activity at 0.78125 µM (PRDM7; 0.78125 µM compound, read-out: PRDM7-Activity %, single experiments)?
Answer: The activity at 0.78125 µM was 87.6%.

Question: What about the “PRDM7-Activity %, single experiments” value (PRDM7; 1.5625 µM compound, 1.5625 µM) of the same molecule?
Answer: Its value is 107.5% and 100.6%.

Question: And the activity at 1.5625 µM (PRDM7; 1.5625 µM compound, read-out: PRDM7-Activity %, Average (n=3))?
Answer: Its activity at 1.5625 µM is 102%.

Question: What about the activity at 1.5625 µM (PRDM7; 1.5625 µM compound, read-out: PRDM7-Activity %, single experiments) of the same molecule?
Answer: Its activity at 1.5625 µM is 98.2%.

Question: And the “PRDM7-Activity %, single experiments” value (PRDM7; 3.125 µM compound, 3.125 µM)?
Answer: Its value is 102.8% and 99.77%.

Question: And the activity at 3.125 µM (PRDM7; 3.125 µM compound, read-out: PRDM7-Activity %, Average (n=3))?
Answer: Its activity at 3.125 µM is 97.8%.

Question: And the activity at 3.125 µM (PRDM7; 3.125 µM compound, read-out: PRDM7-Activity %, single experiments)?
Answer: The activity at 3.125 µM was 90.9%.

Question: What about the “PRDM7-Activity %, single experiments” value (PRDM7; 6.25 µM compound, 6.25 µM) of the same molecule?
Answer: Its value is 83.67% and 87.1%.

Question: What about the activity at 6.25 µM (PRDM7; 6.25 µM compound, read-out: PRDM7-Activity %, Average (n=3)) of the same molecule?
Answer: Its activity at 6.25 µM is 90.6%.

Question: What about the activity at 6.25 µM (PRDM7; 6.25 µM compound, read-out: PRDM7-Activity %, single experiments) of the same molecule?
Answer: The activity at 6.25 µM was 101%.

Question: What about the “PRDM7-Activity %, single experiments” value (PRDM7; 12.5 µM compound, 12.5 µM) of the same molecule?
Answer: The value was 102.7% and 91.72%.

Question: And the activity at 12.5 µM (PRDM7; 12.5 µM compound, read-out: PRDM7-Activity %, Average (n=3))?
Answer: Its activity at 12.5 µM is 94.2%.

Question: What about the activity at 12.5 µM (PRDM7; 12.5 µM compound, read-out: PRDM7-Activity %, single experiments) of the same molecule?
Answer: The activity at 12.5 µM was 88.2%.

Question: What about the “PRDM7-Activity %, single experiments” value (PRDM7; 25 µM compound, 25 µM) of the same molecule?
Answer: The value was 99.4% and 100.5%.

Question: And the activity at 25 µM (PRDM7; 25 µM compound, read-out: PRDM7-Activity %, Average (n=3))?
Answer: Its activity at 25 µM is 101%.

Question: And the activity at 25 µM (PRDM7; 25 µM compound, read-out: PRDM7-Activity %, single experiments)?
Answer: The activity at 25 µM was 105%.

Question: And the “PRDM7-Activity %, single experiments” value (PRDM7; 50 µM compound, 50 µM)?
Answer: The value was 93.21% and 92.53%.

Question: What about the activity at 50 µM (PRDM7; 50 µM compound, read-out: PRDM7-Activity %, Average (n=3)) of the same molecule?
Answer: The activity at 50 µM was 93%.

Question: And the activity at 50 µM (PRDM7; 50 µM compound, read-out: PRDM7-Activity %, single experiments)?
Answer: The activity at 50 µM was 93.3%.

Question: And the “PRDM7-Activity %, single experiments” value (PRDM7; 100 µM compound, 100 µM)?
Answer: The value was 98.05% and 87.79%.

Question: What about the activity at 100 µM (PRDM7; 100 µM compound, read-out: PRDM7-Activity %, Average (n=3)) of the same molecule?
Answer: Its activity at 100 µM is 89.8%.

Question: And the activity at 100 µM (PRDM7; 100 µM compound, read-out: PRDM7-Activity %, single experiments)?
Answer: The activity at 100 µM was 83.5%.

Question: And the “PRDM7-Activity %, single experiments” value (PRDM7; 200 µM compound, 200 µM)?
Answer: Its value is 98.85% and 73.14% and 89.14%.

Question: What about the activity at 200 µM (PRDM7; 200 µM compound, read-out: PRDM7-Activity %, Average (n=3)) of the same molecule?
Answer: Its activity at 200 µM is 87%.

Question: And the “Tm of PRDM9 in cells (NALTSA)” value ([1]; 10 µM compound, 0.1% DMSO, 1 h, DMSO control Tm 52 ± 0.3 °C)?
Answer: Its value is 51.6 ± 0.3 °C.

Question: What about the “∆Tm (°C)” value ([1]; Fig. 5b, replicates) of the same molecule?
Answer: Its value is 0.2175 °C and -0.9409 °C and -0.4232 °C.

Question: And the Normalized_Signal ([1]; Temperature 41.9 °C)?
Answer: The Normalized_Signal was 1.

Question: And the Normalized_Signal ([1]; Temperature 42.4 °C)?
Answer: Its Normalized_Signal is 0.9008 and 0.9609 and 1.092.

Question: What about the Normalized_Signal ([1]; Temperature 43.6 °C) of the same molecule?
Answer: The Normalized_Signal was 0.8855 and 0.9556 and 0.9997.

Question: What about the Normalized_Signal ([1]; Temperature 45.5 °C) of the same molecule?
Answer: The Normalized_Signal was 0.873 and 0.8101 and 0.9461.

Question: And the Normalized_Signal ([1]; Temperature 47.8 °C)?
Answer: Its Normalized_Signal is 0.7977 and 0.6572 and 0.8375.

Question: What about the Normalized_Signal ([1]; Temperature 50.4 °C) of the same molecule?
Answer: Its Normalized_Signal is 0.6003 and 0.5454 and 0.5984.

Question: And the Normalized_Signal ([1]; Temperature 53.1 °C)?
Answer: The Normalized_Signal was 0.5018 and 0.4469 and 0.4089.

Question: And the Normalized_Signal ([1]; Temperature 55.8 °C)?
Answer: Its Normalized_Signal is 0.3624 and 0.3667 and 0.3326.

Question: And the Normalized_Signal ([1]; Temperature 58.1 °C)?
Answer: The Normalized_Signal was 0.3387 and 0.2885 and 0.2383.

Question: What about the Normalized_Signal ([1]; Temperature 60.1 °C) of the same molecule?
Answer: The Normalized_Signal was 0.2284 and 0.1546 and 0.1556.

Question: And the Normalized_Signal ([1]; Temperature 61.5 °C)?
Answer: Its Normalized_Signal is 0.2018 and 0.1276 and 0.1034.

Question: What about the Normalized_Signal ([1]; Temperature 62.1 °C) of the same molecule?
Answer: Its Normalized_Signal is 0.1991 and 0.1124 and 0.111.

Question: What about the “HEK293T cell growth (in words)” value (HEK293T cells; 3 µM, 24 h of treatment) of the same molecule?
Answer: Its value is “neither compound affected HEK293T cell growth”.

Question: And the “Cell# - toxocity data, % Control” value (HEK293T cells; 1 µM)?
Answer: Its value is 113.12 % Control and 118.767 % Control and 86.3705 % Control.

Question: And the “Cell# - toxocity data, % Control” value (HEK293T cells; 3 µM)?
Answer: The value was 125.539 % Control and 114.582 % Control and 84.3363 % Control.

Question: What about the “Cell# - toxocity data, % Control” value (HEK293T cells; 5 µM) of the same molecule?
Answer: The value was 86.195 % Control and 121.075 % Control and 87.3323 % Control.

Question: What about the “Cell# - toxocity data, % Control” value (HEK293T cells; 10 µM) of the same molecule?
Answer: Its value is 76.5766 % Control and 74.1915 % Control and 52.2642 % Control.
